Laboratory results from ChEMBL document CHEMBL1201862, “PubChem BioAssay data set” (2004).
Active and inactive are the calls of the source.

How the values were obtained:
[1] = viability of uninfected HEp-2 cells – cell-based, HTS, cytotoxicity control for RSV inhibitor project, dose response (AID 2410); format: functional; conditions: human respiratory syncytial virus
CAAX prenyl protease 2 [2] = target: CAAX prenyl protease 2 (Saccharomyces cerevisiae S288c, UniProt Q03530); format: biochemical
CAAX prenyl protease 2 (Saccharomyces cerevisiae S288c, UniProt Q03530), sequence (Q03530 whole entry, the tested form may be a part): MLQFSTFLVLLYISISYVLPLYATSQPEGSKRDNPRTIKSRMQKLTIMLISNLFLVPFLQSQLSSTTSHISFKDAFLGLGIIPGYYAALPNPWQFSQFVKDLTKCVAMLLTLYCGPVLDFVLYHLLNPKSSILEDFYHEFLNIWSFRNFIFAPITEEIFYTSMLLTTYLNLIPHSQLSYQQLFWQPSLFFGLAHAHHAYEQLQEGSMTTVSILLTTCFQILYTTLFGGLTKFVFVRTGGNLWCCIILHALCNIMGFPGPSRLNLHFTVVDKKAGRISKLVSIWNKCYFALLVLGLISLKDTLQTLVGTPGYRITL

[3] = target: Disintegrin and metalloproteinase domain-containing protein 17 (Homo sapiens, UniProt P78536); experiment: exosite inhibitors of ADAM17, dose response, biochemical (AID 743260)
Disintegrin and metalloproteinase domain-containing protein 17, sequence (P78536 whole entry, the tested form may be a part): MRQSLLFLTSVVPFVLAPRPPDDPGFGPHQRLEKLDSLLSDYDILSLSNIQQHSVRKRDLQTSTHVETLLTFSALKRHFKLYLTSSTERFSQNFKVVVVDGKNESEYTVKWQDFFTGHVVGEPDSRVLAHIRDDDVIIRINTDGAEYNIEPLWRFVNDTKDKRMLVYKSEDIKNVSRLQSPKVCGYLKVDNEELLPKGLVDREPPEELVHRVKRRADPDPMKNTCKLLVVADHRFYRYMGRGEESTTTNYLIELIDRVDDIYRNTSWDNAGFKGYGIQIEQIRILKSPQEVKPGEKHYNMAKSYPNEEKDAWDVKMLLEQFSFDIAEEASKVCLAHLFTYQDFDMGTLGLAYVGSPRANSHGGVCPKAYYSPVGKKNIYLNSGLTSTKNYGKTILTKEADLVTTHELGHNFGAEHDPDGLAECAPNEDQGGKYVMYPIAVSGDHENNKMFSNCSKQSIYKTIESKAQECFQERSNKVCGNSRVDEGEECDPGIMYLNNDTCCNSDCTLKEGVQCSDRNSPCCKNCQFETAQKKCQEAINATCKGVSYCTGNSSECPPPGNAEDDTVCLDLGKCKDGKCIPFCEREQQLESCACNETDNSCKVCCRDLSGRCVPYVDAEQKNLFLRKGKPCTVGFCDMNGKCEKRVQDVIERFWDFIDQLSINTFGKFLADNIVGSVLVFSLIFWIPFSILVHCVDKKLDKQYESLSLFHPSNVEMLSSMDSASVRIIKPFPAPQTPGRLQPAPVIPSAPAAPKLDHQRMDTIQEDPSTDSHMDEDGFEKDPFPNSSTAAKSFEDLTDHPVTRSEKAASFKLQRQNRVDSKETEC

[4] = inhibition of ADAM10 peptide cleavage – biochemical, FRET peptide substrate, recombinant human ADAM10, selectivity assay for ADAM17 exosite inhibitor project, dose response (AID 743259);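 further: ADAM10 enzyme cleaving a FRET peptide substrate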
CAAX prenyl protease 2 [5] = target: T1, CAAX prenyl protease 2 (Homo sapiens, UniProt Q9Y256); experiment: inhibition of Ras-converting CAAX protease Rce1 – biochemical, yeast membranes, quenched-peptide fluorescence, cherry-pick, dose response (AID 588849)
T1 sequence (Q9Y256 whole entry): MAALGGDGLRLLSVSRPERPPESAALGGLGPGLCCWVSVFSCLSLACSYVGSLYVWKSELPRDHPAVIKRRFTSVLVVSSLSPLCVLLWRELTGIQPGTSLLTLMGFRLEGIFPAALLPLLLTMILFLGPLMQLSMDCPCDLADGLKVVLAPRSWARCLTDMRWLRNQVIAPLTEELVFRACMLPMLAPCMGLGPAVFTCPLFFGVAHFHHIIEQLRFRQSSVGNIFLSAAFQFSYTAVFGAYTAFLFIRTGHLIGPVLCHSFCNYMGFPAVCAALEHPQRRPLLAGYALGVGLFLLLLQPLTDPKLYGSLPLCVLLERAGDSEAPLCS

[6] = target: Scavenger receptor class B member 1 (Mus musculus, UniProt Q61009); experiment: mouse SR-BI DiI-HDL uptake blockers – ldlA[mSR-BI] cells, fluorescence, cherry pick, dose response (AID 493194); format: functional, cell-based;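 further: cellular uptake of fluorescent DiI-labeled HDL measured as cell fluorescence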
Scavenger receptor class B member 1, sequence (Q61009 whole entry): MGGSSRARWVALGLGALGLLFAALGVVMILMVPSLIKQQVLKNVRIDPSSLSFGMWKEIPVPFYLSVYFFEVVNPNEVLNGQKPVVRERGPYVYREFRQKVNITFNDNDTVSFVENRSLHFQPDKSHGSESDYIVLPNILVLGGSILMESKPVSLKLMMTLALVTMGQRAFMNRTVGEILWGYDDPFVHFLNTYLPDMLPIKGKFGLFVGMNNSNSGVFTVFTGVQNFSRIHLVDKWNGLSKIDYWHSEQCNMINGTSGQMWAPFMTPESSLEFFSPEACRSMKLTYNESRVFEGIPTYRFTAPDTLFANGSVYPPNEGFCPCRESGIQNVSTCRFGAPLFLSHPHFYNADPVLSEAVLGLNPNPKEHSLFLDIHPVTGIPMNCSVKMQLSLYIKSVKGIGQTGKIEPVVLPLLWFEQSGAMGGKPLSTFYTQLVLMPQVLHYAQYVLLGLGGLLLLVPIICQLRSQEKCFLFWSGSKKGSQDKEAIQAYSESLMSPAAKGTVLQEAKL

[7] = target: Glyceraldehyde-3-phosphate dehydrogenase (Homo sapiens, UniProt P04406)
Glyceraldehyde-3-phosphate dehydrogenase, sequence (P04406 whole entry): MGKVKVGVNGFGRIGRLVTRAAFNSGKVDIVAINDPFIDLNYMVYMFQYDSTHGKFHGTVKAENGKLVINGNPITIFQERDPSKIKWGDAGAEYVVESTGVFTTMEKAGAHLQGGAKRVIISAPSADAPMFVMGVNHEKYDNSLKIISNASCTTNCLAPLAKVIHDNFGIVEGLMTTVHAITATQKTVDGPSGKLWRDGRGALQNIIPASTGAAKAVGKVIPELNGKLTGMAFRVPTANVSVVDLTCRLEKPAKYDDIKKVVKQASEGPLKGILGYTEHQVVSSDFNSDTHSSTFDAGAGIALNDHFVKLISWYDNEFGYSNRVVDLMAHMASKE

[8] = target: T2, Dual specificity protein phosphatase 6 (Rattus norvegicus, UniProt Q64346)
T2 sequence (Q64346 whole entry): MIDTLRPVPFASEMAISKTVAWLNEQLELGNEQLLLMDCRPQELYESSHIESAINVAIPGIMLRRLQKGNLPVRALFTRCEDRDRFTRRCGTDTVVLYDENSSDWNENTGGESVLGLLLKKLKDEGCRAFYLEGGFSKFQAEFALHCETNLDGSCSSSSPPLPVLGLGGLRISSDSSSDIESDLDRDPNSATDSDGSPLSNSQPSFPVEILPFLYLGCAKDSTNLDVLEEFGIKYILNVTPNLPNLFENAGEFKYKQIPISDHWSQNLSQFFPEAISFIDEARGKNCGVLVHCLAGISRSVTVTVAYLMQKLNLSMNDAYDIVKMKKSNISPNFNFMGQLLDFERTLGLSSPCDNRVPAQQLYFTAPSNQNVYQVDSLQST

[9] = target: T2, Dual specificity protein phosphatase 6; format: functional
[10] = target: T3, Tyrosine-protein phosphatase non-receptor type 7 (Homo sapiens, UniProt P35236); format: functional
T3 sequence (P35236 whole entry): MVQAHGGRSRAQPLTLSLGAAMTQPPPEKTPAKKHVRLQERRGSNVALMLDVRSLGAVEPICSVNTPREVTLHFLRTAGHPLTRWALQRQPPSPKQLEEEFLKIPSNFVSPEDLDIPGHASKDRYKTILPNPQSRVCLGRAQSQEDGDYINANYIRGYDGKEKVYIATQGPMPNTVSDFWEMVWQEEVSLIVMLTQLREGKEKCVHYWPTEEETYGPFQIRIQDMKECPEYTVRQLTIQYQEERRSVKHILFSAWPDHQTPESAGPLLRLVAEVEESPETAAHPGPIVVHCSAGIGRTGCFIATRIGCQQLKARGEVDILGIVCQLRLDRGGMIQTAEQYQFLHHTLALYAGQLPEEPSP

[11] = target: DNA dC->dU-editing enzyme APOBEC-3A (Homo sapiens, UniProt P31941); experiment: A3A deaminase inhibition for selectivity – biochemical, dose response (AID 504722); format: functional
DNA dC->dU-editing enzyme APOBEC-3A, sequence (P31941 whole entry): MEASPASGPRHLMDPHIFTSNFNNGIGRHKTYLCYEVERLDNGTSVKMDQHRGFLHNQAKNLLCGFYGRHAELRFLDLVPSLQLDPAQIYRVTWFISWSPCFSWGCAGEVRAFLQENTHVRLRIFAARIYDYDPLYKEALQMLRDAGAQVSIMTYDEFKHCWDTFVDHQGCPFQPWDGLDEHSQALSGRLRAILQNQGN

[12] = target: DNA dC->dU-editing enzyme APOBEC-3G (Homo sapiens, UniProt Q9HC16); experiment: Dose Response confirmation of small molecule APOBEC3G DNA Deaminase Inhibitors via a fluorescence-based single-stranded DNA deaminase assay. [Related pubchem assays (depositor defined):AID493012, AID493028]; format: functional
DNA dC->dU-editing enzyme APOBEC-3G, sequence (Q9HC16 whole entry): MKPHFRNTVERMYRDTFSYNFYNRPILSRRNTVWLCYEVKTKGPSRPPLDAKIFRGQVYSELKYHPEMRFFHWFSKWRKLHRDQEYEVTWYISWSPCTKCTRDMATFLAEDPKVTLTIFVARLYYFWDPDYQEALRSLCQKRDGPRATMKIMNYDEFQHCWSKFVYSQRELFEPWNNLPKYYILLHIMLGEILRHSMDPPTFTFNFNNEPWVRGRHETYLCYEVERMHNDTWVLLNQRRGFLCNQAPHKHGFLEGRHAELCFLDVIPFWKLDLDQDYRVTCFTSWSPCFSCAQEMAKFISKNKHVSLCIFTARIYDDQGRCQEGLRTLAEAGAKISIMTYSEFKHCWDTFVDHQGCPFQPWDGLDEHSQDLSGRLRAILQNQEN

BJ [13] = experiment: BJ-TERT-LT-ST fibroblast viability loss – cell-based, RAS-independent, luminescence, dose response (AID 1935); format: functional; conditions: Homo sapiens;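 further: BJ fibroblasts immortalized with TERT plus LT and ST oncogenes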
cells [14] = format: functional, cell-based
[15] = tested on: Streptococcus sp. 'group A'; experiment: Streptococcus pyogenes SK(-)GAS viability under kanamycin – luminescence, BacTiterGlo, confirmation, counter-screen for streptokinase expression inhibitor project, dose response (AID 1900); format: functional, organism-based
Beta-galactosidase = Beta-galactosidase (Escherichia coli, UniProt Q8VNN2); format: functional
Beta-galactosidase, sequence (Q8VNN2 whole entry): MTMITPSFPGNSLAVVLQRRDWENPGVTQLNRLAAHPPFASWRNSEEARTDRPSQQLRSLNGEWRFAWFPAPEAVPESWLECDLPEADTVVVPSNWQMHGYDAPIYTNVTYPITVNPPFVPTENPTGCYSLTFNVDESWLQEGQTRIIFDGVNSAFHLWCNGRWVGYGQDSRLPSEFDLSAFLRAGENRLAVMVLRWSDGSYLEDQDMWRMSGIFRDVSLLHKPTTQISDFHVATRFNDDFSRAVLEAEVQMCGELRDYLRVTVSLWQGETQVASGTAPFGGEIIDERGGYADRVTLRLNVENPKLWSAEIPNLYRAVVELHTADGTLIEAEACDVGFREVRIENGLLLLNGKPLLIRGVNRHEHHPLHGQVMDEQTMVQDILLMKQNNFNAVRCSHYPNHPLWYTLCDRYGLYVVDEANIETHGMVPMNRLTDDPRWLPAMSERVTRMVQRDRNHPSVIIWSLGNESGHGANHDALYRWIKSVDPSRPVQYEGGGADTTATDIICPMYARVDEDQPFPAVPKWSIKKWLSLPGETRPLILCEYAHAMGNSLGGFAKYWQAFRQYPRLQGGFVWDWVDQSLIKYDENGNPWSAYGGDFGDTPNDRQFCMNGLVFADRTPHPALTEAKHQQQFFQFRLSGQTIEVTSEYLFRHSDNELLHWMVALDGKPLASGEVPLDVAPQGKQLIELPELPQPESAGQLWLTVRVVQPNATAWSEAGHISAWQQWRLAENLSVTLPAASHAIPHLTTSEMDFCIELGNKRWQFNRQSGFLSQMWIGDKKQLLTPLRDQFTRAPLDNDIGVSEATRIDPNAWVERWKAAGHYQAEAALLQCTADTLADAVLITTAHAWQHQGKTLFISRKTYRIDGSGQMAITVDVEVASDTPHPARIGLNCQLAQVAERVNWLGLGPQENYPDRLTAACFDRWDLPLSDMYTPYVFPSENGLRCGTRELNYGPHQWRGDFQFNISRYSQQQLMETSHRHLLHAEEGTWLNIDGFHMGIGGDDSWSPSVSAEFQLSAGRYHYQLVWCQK

[16] = alpha-synuclein stem-loop luciferase translation blockers – H4 neuroglioma cells, luminescence, confirmation (AID 1988); format: functional, cell-based
Streptococcus = experiment: GAS UMAA2166 growth inhibition – luminescence, BacTiterGlo, counter-screen for streptokinase expression inhibitor project, dose response (AID 1915); format: functional, organism-based;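 further: potency for reduction of bacterial viability or growth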
[17] = Luminescence Cell-Based Dose Response HTS to Identify Inhibitors of 5'UTR Stem-Loop Driven Prion Protein mRNA Translation in H4 Neuroglioblastoma Cells. [Related pubchem assays: 1827 (Project Summary), 1813 (Primary HTS)]; format: functional
Vero [18] = experiment: cells; format: functional; conditions: Chlorocebus sabaeus
[19] = luciferase reporter signal suppression in cells – H4 neuroglioma cells, luminescence, dose response (AID 1990); format: functional, cell-based
Vero [20] = experiment: cells; format: functional, cell-based; conditions: Chlorocebus sabaeus
BJ [21] = experiment: cells; format: functional, cell-based; conditions: Homo sapiens
[22] = target: T4, Kappa-type opioid receptor (Homo sapiens, UniProt P41145); format: functional
T4 sequence (P41145 whole entry): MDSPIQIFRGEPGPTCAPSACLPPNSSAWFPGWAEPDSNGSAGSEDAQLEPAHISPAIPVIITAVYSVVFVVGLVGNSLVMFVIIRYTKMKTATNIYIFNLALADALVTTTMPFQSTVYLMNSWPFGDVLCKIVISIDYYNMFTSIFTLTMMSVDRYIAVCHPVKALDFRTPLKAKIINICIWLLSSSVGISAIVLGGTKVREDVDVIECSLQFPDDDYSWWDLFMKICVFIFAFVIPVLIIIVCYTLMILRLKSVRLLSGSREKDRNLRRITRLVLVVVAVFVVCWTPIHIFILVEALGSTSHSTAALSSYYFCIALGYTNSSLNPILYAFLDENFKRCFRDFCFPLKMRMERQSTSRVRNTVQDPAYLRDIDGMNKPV

BJ [23] = experiment: growth inhibition of engineered Ras-driven BJ cells – cell-based, alamar blue fluorescence, cherrypicked samples, dose response (AID 2631); format: functional; conditions: Homo sapiens;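 further: confirmatory dose-response assay in RAS-dependent BJ fibroblasts engineered with TERT, LT and ST, with cytotoxicity read by fluorescence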
INS1 = experiment: INS-1E survival protection against cytokine death – cell-based, luminescence, retest, dose response (AID 449756); format: functional; conditions: Rattus norvegicus;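 further: cell death triggered by IL-1 beta plus TNF-alpha plus IFN-gamma mixture; protective hits raise ATP signal compared with cytokine alone wells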
cells [24] = format: functional, cell-based; remark: listed apart in the source
[25] = DRD fibroblast viability loss – cell-based, non-viral oncogenic, luminescence, dose response (AID 1934); format: functional; conditions: Homo sapiens
BJ [26] = experiment: BJ-TERT fibroblast viability loss – cell-based, RAS-independent, luminescence, dose response (AID 1933); format: functional; conditions: Homo sapiens
[27] = target: T4, Kappa-type opioid receptor; format: functional; remark: listed apart in the source

CCO[C@H]1OC(C(=O)Nc2ccccc2)=C[C@@H](c2csc3ccccc23)[C@@H]1CCCO
CC50 [1]: 18.7 µM (active)
AC50 (CAAX prenyl protease 2 [2]): 17.5 µM (active)
IC50 [3]: > 69.5 µM (inactive)
IC50 [4]: 11.2 µM (inactive)
AC50 (CAAX prenyl protease 2 [5]): 0.183 µM (active)

CCn1c(COc2c(C)cccc2C)nnc1SCC(=O)N1CCN(c2ccccc2)CC1
AC50 [6]: 23 µM (active)

CCCCCCn1c(=O)nc(NCc2ccccc2OC)[nH]c1=O
IC50 [7]: > 100 µM (not active)
IC50 [8]: > 100 µM (inactive)
IC50 [9]: > 100 µM (inactive)
IC50 [10]: > 100 µM (not active)

CCOc1ccc(N)c(SSc2cc(OCC)ccc2N)c1
IC50 [11]: > 100 µM (inactive)
IC50 [12]: 17.1 µM (active)

Cc1ccccc1N=Nc1ccc(O)c2ncccc12
EC50 (BJ [13]): 6.64 µM (inconclusive)
EC50 (cells [14]): 7.93 µM (active)
EC50 [15]: < 0.06 µM (active)
EC50 (Beta-galactosidase): 30.1 µM (active)
EC50 [16]: 2.03 µM (active)
EC50 (Streptococcus): 0.437 µM (active)
EC50 [17]: 2.89 µM (active)
CC50 (Vero [18]): 5.63 µM (active)
EC50 [19]: 5.81 µM (active)
IC50 (Vero [20]): > 25 µM (active)
EC50 (BJ [21]): 15.1 µM (inconclusive)
IC50 [22]: > 32 µM
EC50 (BJ [23]): 0.677 µM (active)
AC50 (INS1): 1.65 µM (active)
EC50 (cells [24]): 46.8 µM (active)
EC50 [25]: 12.7 µM (active)
EC50 (BJ [26]): 10.4 µM (inconclusive)
IC50 [27]: 4.11 µM (active)
